In ChEMBL document CHEMBL1201862, “PubChem BioAssay data set” (2004):
Each block holds one molecule with its values, some of them ahead of it. Activity calls are given as the source filed them.

Columns and labels:
[1] = target: Mothers against decapentaplegic homolog 3 (Homo sapiens, UniProt P84022); experiment: Smad3 binding inhibitors, lysate ELISA, dose response, cell lysate, secondary confirmation, chemiluminescent ELISA, HEK293 lysate (AID 1058); assay type: functional
[2] = Luminescence Cell-Based Dose Confirmation HTS to Identify Inhibitors of Platelet Dense Granule Release. [Related pubchem assays: 1663 (Primary HTS), 1678 (Summary of Project)]; assay type: functional
[3] = target: Luciferin 4-monooxygenase (Photinus pyralis, UniProt P08659); experiment: firefly luciferase enzyme inhibitors, dose response, biochemical, luminescence (AID 1891)
[4] = inhibition of ADP-Glo detection reagents, dose response, artefact control for CDK5 inhibitor project, biochemical, luminescence, cherry-picked samples, set 2 (AID 504546); assay type: functional
[5] = target: Cyclin-dependent kinase 5/CDK5 activator 1 (Homo sapiens, UniProt Q00535); experiment: CDK5/p35 kinase inhibitors, dose response, biochemical, cherry-picked samples, set 2 (AID 504545)
[6] = target: Serine/threonine-protein phosphatase PP1-alpha catalytic subunit (Homo sapiens, UniProt P62136); experiment: PP1 phosphatase inhibitors, dose response, biochemical, fluorescence (AID 2403);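 also: phosphatase turnover of OMFP into fluorescent 3-O-methylfluorescein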
[7] = target: Serine/threonine-protein phosphatase (Homo sapiens, UniProt Q9BPW0); experiment: Counterscreen for inhibitors of PP1: fluorescence-based biochemical high throughput dose response assay to identify inhibitors of Protein Phosphatase 5 (PP5). [Related pubchem assays: 2034 (Summary (PP5 inhibitors)), 1987 (PP5 inhibitors in singlate), 2235 (PP1 inhibitors in singlate)]
Serine/threonine-protein phosphatase, sequence (Q9BPW0 whole entry): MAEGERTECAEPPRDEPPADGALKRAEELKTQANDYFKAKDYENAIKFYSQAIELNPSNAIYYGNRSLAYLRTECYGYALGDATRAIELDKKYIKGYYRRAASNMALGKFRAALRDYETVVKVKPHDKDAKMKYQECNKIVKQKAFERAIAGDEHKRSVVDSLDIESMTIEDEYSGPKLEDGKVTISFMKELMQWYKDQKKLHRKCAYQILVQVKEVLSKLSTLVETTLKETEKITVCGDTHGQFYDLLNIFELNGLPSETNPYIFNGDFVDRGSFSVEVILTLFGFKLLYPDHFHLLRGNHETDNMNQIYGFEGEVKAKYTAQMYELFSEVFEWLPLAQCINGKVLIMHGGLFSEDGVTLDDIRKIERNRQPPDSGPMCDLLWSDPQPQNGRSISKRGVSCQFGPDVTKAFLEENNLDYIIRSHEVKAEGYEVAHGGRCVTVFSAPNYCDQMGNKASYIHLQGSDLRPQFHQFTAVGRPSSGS

Cytochrome P450 2C19 = Cytochrome P450 2C19 (Homo sapiens, UniProt P33261); experiment: qHTS Assay for Inhibitors and Substrates of Cytochrome P450 2C19. [Related pubchem assays: 410 ]; assay type: ADME; settings: read-out: Potency
Cytochrome P450 2C19, sequence (P33261 whole entry): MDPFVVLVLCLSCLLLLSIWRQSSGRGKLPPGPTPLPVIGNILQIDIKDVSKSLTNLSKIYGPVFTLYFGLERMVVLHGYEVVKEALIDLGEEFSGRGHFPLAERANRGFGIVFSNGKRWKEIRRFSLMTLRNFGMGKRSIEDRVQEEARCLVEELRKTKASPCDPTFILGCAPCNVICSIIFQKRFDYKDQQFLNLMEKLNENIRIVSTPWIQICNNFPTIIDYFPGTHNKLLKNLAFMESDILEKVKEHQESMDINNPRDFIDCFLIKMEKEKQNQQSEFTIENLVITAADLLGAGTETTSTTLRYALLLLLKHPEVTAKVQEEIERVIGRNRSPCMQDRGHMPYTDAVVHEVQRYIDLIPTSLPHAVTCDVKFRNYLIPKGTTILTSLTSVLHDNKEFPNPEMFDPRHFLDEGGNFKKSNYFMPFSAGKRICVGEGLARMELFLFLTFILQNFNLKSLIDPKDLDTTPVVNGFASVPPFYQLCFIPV

Cytochrome P450 2D6 = Cytochrome P450 2D6 (Homo sapiens, UniProt P10635); experiment: qHTS Assay for Inhibitors and Substrates of Cytochrome P450 2D6. [Related pubchem assays: 410 ]; assay type: ADME; settings: read-out: Potency
Cytochrome P450 2D6, sequence (P10635 whole entry): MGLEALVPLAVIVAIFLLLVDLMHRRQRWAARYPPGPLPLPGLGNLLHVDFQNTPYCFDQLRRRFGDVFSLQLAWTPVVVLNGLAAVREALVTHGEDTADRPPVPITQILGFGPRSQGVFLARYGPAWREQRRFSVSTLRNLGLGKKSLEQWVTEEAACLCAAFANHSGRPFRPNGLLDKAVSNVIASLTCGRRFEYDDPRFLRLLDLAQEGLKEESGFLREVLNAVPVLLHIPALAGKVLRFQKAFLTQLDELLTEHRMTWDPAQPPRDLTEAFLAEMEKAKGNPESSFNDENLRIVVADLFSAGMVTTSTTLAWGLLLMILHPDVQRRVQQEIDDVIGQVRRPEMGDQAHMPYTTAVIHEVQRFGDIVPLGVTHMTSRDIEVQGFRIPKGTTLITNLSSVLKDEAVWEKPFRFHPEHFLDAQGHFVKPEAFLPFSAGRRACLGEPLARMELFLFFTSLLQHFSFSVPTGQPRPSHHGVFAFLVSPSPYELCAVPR

[8] = target: Acyl-homoserine lactone acylase PvdQ (Pseudomonas aeruginosa (strain LESB58), UniProt Q9I194); experiment: P. aeruginosa PvdQ acylase inhibitors, dose response, biochemical, fluorescence, plate reader and imaging, cherry-picks (AID 493231)
Insulin-degrading enzyme = target: T1, Insulin-degrading enzyme (Homo sapiens, UniProt P14735); experiment: Dose Response: Fluorescence polarization-based cell-based high throughput dose response assay for inhibitors of insulin-degrading enzyme (IDE). [Related pubchem assays: 434962 (Primary screen (IDE inhibitors in singlicate)), 449730 (Counterscreen (Cytotoxicity in triplicate)), 435028 (Confirmation (IDE inhibitors in triplicate)), 434984 (Summary …; assay type: functional
T1 sequence (P14735 whole entry): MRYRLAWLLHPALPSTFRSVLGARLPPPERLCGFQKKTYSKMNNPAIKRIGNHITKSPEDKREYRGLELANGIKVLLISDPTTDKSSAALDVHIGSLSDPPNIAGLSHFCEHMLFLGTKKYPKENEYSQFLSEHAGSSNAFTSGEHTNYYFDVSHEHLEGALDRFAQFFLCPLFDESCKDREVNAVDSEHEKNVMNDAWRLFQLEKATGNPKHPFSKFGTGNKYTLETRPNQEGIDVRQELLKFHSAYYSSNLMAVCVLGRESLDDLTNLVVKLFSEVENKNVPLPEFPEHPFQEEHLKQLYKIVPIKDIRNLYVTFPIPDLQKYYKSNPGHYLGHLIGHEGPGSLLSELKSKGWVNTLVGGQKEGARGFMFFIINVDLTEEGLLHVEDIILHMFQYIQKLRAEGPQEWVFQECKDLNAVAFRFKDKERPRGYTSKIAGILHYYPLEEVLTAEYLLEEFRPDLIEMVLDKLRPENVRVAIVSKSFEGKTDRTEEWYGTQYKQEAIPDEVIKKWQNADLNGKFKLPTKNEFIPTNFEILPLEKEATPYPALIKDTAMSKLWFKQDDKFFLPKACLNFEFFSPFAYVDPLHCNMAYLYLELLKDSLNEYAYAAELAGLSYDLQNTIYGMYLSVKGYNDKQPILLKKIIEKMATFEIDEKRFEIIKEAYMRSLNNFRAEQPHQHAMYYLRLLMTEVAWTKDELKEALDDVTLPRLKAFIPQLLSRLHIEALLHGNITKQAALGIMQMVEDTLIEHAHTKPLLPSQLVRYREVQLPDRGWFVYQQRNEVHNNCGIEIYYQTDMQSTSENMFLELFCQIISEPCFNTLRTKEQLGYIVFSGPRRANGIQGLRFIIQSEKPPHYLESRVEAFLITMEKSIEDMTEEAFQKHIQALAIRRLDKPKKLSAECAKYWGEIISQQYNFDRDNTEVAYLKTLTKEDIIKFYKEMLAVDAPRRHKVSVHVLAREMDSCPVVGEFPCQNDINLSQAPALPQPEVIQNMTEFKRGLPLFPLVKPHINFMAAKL

[9] = target: T2, Sentrin-specific protease 1 (Homo sapiens, UniProt Q9P0U3); experiment: potency of human SENP1 inhibitors, dose response, biochemical, kinetic FRET (AID 651697); assay type: functional; settings: read-out: IC50_Mean
T2 sequence (Q9P0U3 whole entry): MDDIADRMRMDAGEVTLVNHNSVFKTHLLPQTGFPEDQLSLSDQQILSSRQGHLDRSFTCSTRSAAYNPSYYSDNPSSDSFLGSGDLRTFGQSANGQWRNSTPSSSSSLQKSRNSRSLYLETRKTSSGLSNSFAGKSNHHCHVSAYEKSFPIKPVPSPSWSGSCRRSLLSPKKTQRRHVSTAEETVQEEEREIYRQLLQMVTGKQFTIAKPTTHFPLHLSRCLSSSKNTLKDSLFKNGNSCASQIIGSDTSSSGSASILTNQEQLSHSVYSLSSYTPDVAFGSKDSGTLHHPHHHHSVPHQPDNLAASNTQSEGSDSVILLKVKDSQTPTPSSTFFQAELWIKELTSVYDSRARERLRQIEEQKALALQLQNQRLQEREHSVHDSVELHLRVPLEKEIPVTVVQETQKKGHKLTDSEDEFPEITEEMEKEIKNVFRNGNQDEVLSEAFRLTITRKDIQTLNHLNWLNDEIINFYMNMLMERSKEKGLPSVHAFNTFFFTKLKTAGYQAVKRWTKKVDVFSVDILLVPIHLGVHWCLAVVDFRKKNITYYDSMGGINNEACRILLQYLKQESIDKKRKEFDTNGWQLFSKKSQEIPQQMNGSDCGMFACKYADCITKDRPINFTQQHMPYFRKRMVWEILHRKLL

[10] = Counterscreen for IDE inhibitors: Luminescence-based cell-based high throughput dose response assay to identify compounds that are cytotoxic to HEK cells. [Related pubchem assays: 434962 (Primary screen (IDE inhibitors in singlicate)), 449730 (Counterscreen (Cytotoxicity in triplicate)), 435028 (Confirmation (IDE inhibitors in triplicate)) …; assay type: functional; settings: HEK293
[11] = target: T2, Sentrin-specific protease 1; experiment: Dose response confirmation of small molecule inhibitors of the catalytic domain of the SUMO protease, SENP1 in a FRET assay.; assay type: functional; settings: read-out: IC50_Mean
[12] = target: T3, Eukaryotic translation initiation factor 2-alpha kinase 3 (Homo sapiens, UniProt Q9NZJ5); experiment: Counterscreen assay for PERK inhibitors: Dose response cell-based high throughput screening assay to measure inhibition of PERK at 6 hours. [Related pubchem assays: 1522, 1416 ]; assay type: functional
T3 sequence (Q9NZJ5 whole entry): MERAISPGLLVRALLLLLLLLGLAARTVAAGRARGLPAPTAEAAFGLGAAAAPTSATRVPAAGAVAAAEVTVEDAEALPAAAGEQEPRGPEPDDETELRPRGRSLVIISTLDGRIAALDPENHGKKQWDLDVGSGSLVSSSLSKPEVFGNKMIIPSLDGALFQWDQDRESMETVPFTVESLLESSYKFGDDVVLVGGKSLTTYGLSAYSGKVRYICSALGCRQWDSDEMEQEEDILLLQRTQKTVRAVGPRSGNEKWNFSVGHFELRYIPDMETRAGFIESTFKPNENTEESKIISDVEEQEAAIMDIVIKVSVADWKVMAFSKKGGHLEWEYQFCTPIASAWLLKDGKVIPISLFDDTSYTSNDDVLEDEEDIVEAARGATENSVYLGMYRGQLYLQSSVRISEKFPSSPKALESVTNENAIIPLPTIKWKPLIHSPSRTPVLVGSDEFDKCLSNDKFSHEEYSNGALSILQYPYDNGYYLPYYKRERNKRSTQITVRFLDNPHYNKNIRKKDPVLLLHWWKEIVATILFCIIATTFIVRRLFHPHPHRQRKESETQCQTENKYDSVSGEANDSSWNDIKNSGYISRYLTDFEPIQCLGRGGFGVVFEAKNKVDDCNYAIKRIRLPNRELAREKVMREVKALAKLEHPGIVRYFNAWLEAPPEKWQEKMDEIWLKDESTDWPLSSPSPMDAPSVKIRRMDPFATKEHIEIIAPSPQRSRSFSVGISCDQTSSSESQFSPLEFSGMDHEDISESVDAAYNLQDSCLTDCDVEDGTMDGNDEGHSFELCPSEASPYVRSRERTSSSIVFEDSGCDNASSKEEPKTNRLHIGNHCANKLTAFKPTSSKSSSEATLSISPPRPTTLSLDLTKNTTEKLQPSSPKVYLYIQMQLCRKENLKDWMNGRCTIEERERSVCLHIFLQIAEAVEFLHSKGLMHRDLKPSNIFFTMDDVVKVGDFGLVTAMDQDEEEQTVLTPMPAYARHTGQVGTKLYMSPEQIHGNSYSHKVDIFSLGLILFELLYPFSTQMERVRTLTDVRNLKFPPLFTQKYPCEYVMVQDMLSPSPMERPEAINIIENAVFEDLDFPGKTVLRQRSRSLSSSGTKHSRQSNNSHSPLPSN

[13] = target: T4, Short transient receptor potential channel 4 (Mus musculus, UniProt Q9QUQ5); experiment: mouse TRPC4 channel inhibitors, dose response, cell-based, HEK293 TRPC4/mu-opioid, Fluo-4 calcium (AID 434942); assay type: functional;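 also: potency of inhibitors blocking the TRPC4 calcium response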
T4 sequence (Q9QUQ5 whole entry): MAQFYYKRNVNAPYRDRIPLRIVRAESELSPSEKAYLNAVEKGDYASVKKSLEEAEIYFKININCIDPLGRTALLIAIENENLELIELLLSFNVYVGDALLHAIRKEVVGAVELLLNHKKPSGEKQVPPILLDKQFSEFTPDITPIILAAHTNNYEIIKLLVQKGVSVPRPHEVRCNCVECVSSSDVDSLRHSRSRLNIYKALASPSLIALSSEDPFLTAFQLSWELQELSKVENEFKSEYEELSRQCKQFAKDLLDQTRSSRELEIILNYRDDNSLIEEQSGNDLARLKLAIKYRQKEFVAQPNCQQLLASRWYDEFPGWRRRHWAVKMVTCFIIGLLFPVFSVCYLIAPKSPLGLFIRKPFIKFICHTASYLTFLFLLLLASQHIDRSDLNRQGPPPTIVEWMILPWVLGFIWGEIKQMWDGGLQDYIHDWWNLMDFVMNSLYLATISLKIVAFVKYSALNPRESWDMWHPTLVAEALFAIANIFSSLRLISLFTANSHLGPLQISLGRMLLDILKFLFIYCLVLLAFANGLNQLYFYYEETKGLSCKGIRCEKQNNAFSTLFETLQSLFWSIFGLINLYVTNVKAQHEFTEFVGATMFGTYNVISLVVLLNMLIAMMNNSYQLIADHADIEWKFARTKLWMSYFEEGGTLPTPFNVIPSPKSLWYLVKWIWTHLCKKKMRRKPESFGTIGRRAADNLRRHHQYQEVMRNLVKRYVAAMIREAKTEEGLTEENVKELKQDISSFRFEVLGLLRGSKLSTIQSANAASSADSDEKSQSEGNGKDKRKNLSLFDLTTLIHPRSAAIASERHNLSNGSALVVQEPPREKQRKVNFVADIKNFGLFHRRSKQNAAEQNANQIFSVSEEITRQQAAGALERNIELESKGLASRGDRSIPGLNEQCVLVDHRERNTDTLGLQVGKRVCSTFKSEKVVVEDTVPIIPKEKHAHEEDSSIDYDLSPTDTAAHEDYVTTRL

[14] = target: T3, Eukaryotic translation initiation factor 2-alpha kinase 3; experiment: Dose response cell-based high-throughput screening assay to measure PERK inhibition. [Related pubchem assays: 1416 ]; assay type: functional
[15] = target: Eukaryotic translation initiation factor 4E (Mus musculus, UniProt P63073); experiment: eIF4E–eIF4G protein interaction inhibitors, dose response, biochemical, TR-FRET (AID 855); assay type: functional;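 also: potency for disrupting eIF4E binding to eIF4GI seen as loss of FRET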
Eukaryotic translation initiation factor 4E, sequence (P63073 whole entry): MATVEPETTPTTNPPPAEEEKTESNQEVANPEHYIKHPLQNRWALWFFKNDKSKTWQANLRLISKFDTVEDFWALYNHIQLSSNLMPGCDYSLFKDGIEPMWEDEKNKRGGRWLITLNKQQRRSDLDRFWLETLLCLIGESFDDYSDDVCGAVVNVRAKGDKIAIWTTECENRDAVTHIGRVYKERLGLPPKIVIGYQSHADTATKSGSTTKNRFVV

Bcl-2-like protein 1 = Bcl-2-like protein 1 (Homo sapiens, UniProt Q07817); experiment: BCL-XL inhibitors, dose response, selectivity assay for MCL1 inhibitor project, biochemical, fluorescence polarization, 1536-well (AID 2218)
[16] = target: Induced myeloid leukemia cell differentiation protein Mcl-1 (Homo sapiens, UniProt Q07820); experiment: MCL1-BIM BH3 interaction inhibitors, dose response, biochemical, fluorescence polarization, BIM-BH3 peptide, 1536-well (AID 2217)
[17] = target: T5, Heat shock 70 kDa protein 1A (Homo sapiens, UniProt P0DMV8); experiment: Hsp70 inhibitors, biochemical, TR-FRET (AID 786)
T5 sequence (P0DMV8 whole entry): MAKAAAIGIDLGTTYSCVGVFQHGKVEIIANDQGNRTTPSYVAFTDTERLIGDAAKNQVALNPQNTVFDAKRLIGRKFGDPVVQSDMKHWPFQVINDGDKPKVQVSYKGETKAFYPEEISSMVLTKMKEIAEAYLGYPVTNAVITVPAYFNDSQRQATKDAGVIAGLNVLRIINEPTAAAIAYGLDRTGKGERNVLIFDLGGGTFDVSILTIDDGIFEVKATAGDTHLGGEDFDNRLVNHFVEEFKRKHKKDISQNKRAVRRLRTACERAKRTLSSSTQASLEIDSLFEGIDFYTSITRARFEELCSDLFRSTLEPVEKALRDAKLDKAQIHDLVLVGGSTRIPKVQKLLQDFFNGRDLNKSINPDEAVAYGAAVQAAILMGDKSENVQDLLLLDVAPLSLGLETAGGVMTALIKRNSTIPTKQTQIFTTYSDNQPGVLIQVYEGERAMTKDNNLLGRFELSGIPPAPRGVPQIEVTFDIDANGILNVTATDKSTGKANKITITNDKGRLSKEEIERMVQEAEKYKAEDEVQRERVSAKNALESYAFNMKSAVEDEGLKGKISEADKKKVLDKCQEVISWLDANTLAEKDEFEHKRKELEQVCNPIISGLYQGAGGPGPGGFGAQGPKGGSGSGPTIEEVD

Genome polyprotein = Genome polyprotein (Hepatitis C virus, UniProt Q2Q167); experiment: HCV core protein dimerization inhibitors, dose response, biochemical, TR-FRET (AID 2159); set-up: species or system Hepacivirus hominis;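 also: blocks dimerization of HCV core protein measured by TR-FRET between tagged core106 pairs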
Genome polyprotein, sequence (Q2Q167 whole entry): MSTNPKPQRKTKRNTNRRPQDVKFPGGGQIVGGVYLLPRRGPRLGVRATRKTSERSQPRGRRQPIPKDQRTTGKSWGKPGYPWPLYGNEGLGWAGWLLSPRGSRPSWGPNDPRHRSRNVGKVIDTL

[18] = target: T5, Heat shock 70 kDa protein 1A; experiment: Hsp70 inhibitors, probe displacement, primary screen, biochemical, fluorescence polarization (AID 583)
[19] = target: Eukaryotic translation initiation factor 4H (Homo sapiens, UniProt Q15056); experiment: human eIF4H binding inhibitors, primary screen, translation initiation inhibitor project, biochemical, uHTS, fluorescence polarization (AID 2012)
[20] = target: Polyadenylate-binding protein 1 (Homo sapiens, UniProt P11940); experiment: PABP poly(A) RNA binding inhibitors, primary screen, biochemical, fluorescence polarization, uHTS (AID 2014)
[21] = target: DNA dC->dU-editing enzyme APOBEC-3G (Homo sapiens, UniProt Q9HC16); assay type: functional;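 also: Dose-response counterscreen measuring inhibition of APOBEC3G DNA deaminase activity, run while confirming APOBEC3A inhibitors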
DNA dC->dU-editing enzyme APOBEC-3G, sequence (Q9HC16 whole entry): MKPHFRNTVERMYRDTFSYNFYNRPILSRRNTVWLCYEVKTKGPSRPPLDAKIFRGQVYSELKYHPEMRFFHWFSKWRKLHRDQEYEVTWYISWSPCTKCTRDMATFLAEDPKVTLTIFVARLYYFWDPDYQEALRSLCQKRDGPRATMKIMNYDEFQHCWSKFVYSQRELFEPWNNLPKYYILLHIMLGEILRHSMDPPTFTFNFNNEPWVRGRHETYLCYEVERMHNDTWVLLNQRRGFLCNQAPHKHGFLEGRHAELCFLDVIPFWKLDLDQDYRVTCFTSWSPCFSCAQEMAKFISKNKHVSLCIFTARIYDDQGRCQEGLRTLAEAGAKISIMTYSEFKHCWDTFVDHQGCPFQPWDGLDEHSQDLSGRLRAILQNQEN

[22] = target: DNA dC->dU-editing enzyme APOBEC-3A (Homo sapiens, UniProt P31941); experiment: Dose Response confirmation of small molecule APOBEC3A DNA Deaminase Inhibitors via a fluorescence-based single-stranded DNA deaminase assay. [Related pubchem assays (depositor defined):AID493011, AID493024]; assay type: functional
DNA dC->dU-editing enzyme APOBEC-3A, sequence (P31941 whole entry): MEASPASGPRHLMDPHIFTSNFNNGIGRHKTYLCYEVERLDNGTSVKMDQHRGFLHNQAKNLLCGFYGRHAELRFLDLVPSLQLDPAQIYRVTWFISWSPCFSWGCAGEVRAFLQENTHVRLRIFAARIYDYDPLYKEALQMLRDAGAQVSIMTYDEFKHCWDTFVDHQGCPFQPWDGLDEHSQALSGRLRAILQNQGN

Mothers against decapentaplegic homolog 3, sequence (P84022 whole entry): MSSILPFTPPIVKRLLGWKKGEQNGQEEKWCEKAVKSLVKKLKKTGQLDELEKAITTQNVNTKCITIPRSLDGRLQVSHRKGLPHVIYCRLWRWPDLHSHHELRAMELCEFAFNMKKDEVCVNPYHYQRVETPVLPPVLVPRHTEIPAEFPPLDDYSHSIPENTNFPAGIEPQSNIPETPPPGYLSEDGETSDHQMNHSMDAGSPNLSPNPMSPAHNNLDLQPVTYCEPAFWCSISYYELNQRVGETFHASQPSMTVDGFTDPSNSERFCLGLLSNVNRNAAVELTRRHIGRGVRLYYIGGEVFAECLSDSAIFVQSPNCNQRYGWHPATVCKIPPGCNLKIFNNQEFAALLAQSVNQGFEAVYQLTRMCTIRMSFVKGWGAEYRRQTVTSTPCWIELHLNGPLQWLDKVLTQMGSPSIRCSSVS

Structure (SMILES): COc1ccc(C(c2cc3c(cc2O)OCO3)N2CCOCC2)cc1OC (configuration not stated)
IC50 [1]: 12.2 µM (not active)

Structure (SMILES): COc1ccc(C(=O)O/N=C(/C)c2cccs2)cc1
EC50 [2]: 1.34 µM (active)
EC50 [3]: 0.517 µM (active)
AC50 [4]: 31.8 µM (active)
AC50 [5]: 15.7 µM (active)

Structure (SMILES): COc1ccc2c(Cl)c(C(=O)N/N=C/c3ccncc3)sc2c1
IC50 [6]: 6.48 µM (active)
IC50 [7]: > 67 µM (not active)

AC50 (Cytochrome P450 2C19): 5.01 µM (inconclusive)
AC50 (Cytochrome P450 2D6): 31.6 µM (inconclusive)
Structure (SMILES): COc1cc2oc(-c3ccccc3)cc(=O)c2cc1O

Structure (SMILES): COc1ccc(/C(C#N)=C/c2ccccn2)cc1
AC50 [8]: 19.9 µM (active)

Structure (SMILES): Cc1c(-n2cc(C(=O)c3cc(Cl)ccc3O)cc(C#N)c2=O)c(=O)n(-c2ccccc2)n1C
IC50 (Insulin-degrading enzyme): > 55.9 µM (not active)
IC50 [9]: 13 µM (active)
IC50 [10]: > 55.7 µM (not active)
IC50 [11]: 7.48 µM (active)

EC50 [12]: > 55.7 µM (not active)
EC50 [13]: 1.19 µM (active)
EC50 [14]: > 55.7 µM (not active)
IC50 [15]: 50 µM (inactive)
Structure (SMILES): Cc1cc(/C=C2/C(=N)N3C(=NC2=O)SN=C3S(C)(=O)=O)c(C)n1-c1ccccc1F

IC50 (Bcl-2-like protein 1): > 109 µM (not active)
IC50 [16]: 10.8 µM (not active)
IC50 [17]: > 100 µM (not active)
IC50 (Genome polyprotein): > 49.8 µM (not active)
IC50 [18]: > 100 µM (not active)
Structure (SMILES): COc1ccc(Br)cc1/C=c1\sc2nc(-c3ccco3)nn2c1=O

Structure (SMILES): C=CCNC1=N[C@@H](c2ccccc2)C(C(=O)OC)=C(C)N1CC
IC50 [19]: > 100 µM (inactive)
IC50 [20]: 9.54 µM (active)
IC50 [21]: 4.51 µM (active)
IC50 [22]: 5.62 µM (active)
